Assay results published in patent publication US20070299072A1, “KV1.5 POTASSIUM CHANNEL INHIBITORS” (Wyeth, priority 2006, published 2007).

Columns and labels:
Assay type in all cases: cell-based
[1] = target: T1, Kv1.5 (Homo sapiens, UniProt P22460); test: Kv1.5 Patch Clamp EP (whole cell patch clamp; single point at 1 μM and IC50); conditions: for IC50: concentration response; for inhibition at 1 µM: single point at 1.0 μM, Kv1.5 stably over expressed in HEK or LTK- cells
T1 construct: expressed in transfected cells; host or cells: HEK or LTK- cells
Protocol: The external solution is standard Tyrodes solution. […] Inhibition was measured at the end of the 1 second pulses and expressed relative to controls. Initial Kv1.5 inhibition is estimated by single point determinations done at 1 μM.

[2] = target: T2, HERG (Homo sapiens, UniProt Q12809); test: HERG Patch Clamp EP (whole cell patch clamp, tail currents; single point at 10 μM and IC50); conditions: for inhibition at 10 µM: human, HEK cells stably overexpressing HERG, single point at 10 μM, HERG in HEK cells, read-out: HERG % Inhib. @ 10 μM; for IC50: concentration response
T2 construct: expressed in transfected cells; host or cells: HEK cells
Text: The external solution is standard Tyrodes solution.

[3] = system: L-type calcium channels; test: FLIPR L-type Calcium Channel Assay (calcium influx in HL-1 cells after KCl); conditions: read-out: L-type Ca2+ IC50
Protocol: HL-1 cells expressing endogenous L-type calcium channels are removed from culture flasks using trypsin, plated on fibronectin/gelatin-coated, clear-bottomed, black-walled 96-well microplates in Claycomb media (JRH Biosciences #51800) containing 10% fetal bovine serum, 4 mM L-glutamine, and 10 μM norepinephrine, and grown to confluency overnight. The next day, growth medium is aspirated from confluent cell monolayers and replaced with 100 μL per well Tyrode's solution (in mM: 130 NaCl, 4 KCl, 1.8 CaCl2, 1.0 MgCl2, 20 HEPES, 10 glucose, pH 7.35) and 50 μL per well FLIPR Calcium Assay kit, component A (#R-8033, Molecular Devices Corporation) and incubated for 60 min. in a 5% CO2 37° C. incubator. 50 μL per well test compounds are added to the plates and further incubated for 15 min. in a 5% CO2 37° C. incubator. All final solutions contain the anion exchange inhibitor, probenecid (2.5 mM). The 96-well plates are then placed in the center position of the FLIPR 1 (Fluorometric Imaging Plate Reader, Molecular Devices Corporation). Cell monolayers in each well are simultaneously illuminated at 488 nm with an Argon ion laser, and fluorescence emission is monitored using a 510-570 nm bandpass filter and a cooled CCD camera. To depolarize the plasma membrane and activate L-type calcium channels, 50 μL per well of 20 mM KCl (final concentration) are dispensed simultaneously to all 96 wells using the FLIPR's automatic 96-well pipettor. Fluorescence measurements are captured for 5 min. following KCl addition. Calcium influx, expressed as % control, is calculated for each concentration of test compound and concentration-response curves and IC50 values are generated using GraphPad Prism 4.0.

T1 sequence (P22460 whole entry): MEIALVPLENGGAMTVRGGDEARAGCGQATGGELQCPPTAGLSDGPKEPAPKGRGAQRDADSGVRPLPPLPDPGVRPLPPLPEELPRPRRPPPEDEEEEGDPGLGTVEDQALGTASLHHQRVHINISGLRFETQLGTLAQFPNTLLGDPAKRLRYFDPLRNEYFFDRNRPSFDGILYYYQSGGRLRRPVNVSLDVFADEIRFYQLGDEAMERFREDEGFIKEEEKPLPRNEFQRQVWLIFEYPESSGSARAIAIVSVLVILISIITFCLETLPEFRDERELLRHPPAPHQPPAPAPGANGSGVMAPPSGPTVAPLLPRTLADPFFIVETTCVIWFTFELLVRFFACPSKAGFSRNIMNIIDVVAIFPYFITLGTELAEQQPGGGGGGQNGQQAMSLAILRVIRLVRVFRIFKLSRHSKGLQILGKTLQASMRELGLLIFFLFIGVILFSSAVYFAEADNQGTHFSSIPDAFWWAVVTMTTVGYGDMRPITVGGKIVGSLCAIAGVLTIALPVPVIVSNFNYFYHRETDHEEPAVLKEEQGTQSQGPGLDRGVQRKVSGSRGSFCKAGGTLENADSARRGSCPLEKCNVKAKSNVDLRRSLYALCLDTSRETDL
T2 sequence (Q12809 whole entry): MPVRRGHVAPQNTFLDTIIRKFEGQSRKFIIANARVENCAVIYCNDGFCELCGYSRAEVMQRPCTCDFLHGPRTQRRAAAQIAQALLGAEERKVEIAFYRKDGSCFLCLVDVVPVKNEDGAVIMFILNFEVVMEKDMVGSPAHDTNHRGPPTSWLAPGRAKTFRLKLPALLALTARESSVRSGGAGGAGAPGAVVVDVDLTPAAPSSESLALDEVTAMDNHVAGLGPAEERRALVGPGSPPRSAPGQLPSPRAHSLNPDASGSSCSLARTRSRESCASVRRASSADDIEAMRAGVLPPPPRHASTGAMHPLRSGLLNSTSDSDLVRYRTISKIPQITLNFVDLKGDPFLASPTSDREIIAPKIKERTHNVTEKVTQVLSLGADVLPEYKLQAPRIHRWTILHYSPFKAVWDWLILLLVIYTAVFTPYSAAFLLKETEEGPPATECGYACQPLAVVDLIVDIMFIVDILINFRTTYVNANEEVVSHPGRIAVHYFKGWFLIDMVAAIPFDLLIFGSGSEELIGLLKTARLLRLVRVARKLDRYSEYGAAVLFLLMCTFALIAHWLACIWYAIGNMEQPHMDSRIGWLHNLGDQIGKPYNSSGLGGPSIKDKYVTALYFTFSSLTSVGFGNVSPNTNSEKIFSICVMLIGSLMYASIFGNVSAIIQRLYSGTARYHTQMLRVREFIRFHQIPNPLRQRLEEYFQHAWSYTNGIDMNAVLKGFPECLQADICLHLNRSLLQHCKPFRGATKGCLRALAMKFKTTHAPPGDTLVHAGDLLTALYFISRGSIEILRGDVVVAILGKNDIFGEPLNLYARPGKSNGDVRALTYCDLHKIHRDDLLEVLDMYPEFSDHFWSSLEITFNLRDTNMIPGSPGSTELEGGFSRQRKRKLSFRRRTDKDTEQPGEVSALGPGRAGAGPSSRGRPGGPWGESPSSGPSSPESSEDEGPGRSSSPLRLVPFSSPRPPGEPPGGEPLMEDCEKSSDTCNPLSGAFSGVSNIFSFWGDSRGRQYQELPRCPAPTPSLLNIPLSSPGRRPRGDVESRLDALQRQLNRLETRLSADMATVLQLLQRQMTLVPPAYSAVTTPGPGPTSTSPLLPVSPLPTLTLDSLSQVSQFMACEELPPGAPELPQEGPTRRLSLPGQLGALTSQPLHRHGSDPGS

Row | Compound | IC50 [1] [µM] | inhibition at 1 µM [1] [%] | inhibition at 10 µM [2] [%] | IC50 [3] [µM] | IC50 [2] [µM]
1 | COc1ccc(CCN2C(=O)C3(CCN(C(=O)NC(C)C)CC3)N(C)C2c2ccc(C3CC3)cc2)cc1 (stereo not drawn) [Compound 16, 2-(4-Cyclopropylphenyl)-3-[2-(4-methoxyphenyl)ethyl]-1-methyl-4-oxo-1,3,8-triaza-spiro[4.5]decane-8-carboxylic acid isopropylamide] | 0.319 | 92 | 48 | 13 | 
2 | COc1ccc(CCN2C(=O)C3(CCN(C(=O)NC4CCCC4)CC3)N(C)C2c2ccc(C3CC3)cc2)cc1 (stereo not drawn) [Compound 20, 2-(4-Cyclopropylphenyl)-3-[2-(4-methoxyphenyl)ethyl]-1-methyl-4-oxo-1,3,8-triaza-spiro[4.5]decane-8-carboxylic acid cyclopentylamide] | 0.186 | 93 | 86 | 8 | 4
3 | COc1ccc(CCN2C(=O)C3(CCN(C(=O)N4CCC4)CC3)N(C)C2c2ccc(C3CC3)cc2)cc1 (stereo not drawn) [Compound 21, 2-(4-cyclopropylphenyl)-3-[2-(4-methoxyphenyl)ethyl]-1-methyl-8-(azetidin-1-ylcarbonyl)-1,3,8-triaza-spiro[4.5]decan-4-one] |  | 97 | 54 | 11 | 
4 | COc1ccc(CCN2C(=O)C3(CCN(C(=O)N4CCN(C)CC4)CC3)N(C)C2c2ccc(C3CC3)cc2)cc1 (stereo not drawn) [Compound 22, 2-(4-Cyclopropylphenyl)-3-[2-(4-methoxyphenyl)ethyl]-1-methyl-8-[(4-methylpiperazin-1-yl)carbonyl]-1,3,8-triaza-spiro[4.5]decan-4-one] |  | 51 | 58 | 18 | 
5 | COc1ccc(CCN2C(=O)C3(CCN(C(=O)N4CCCC4)CC3)N(C)C2c2ccc(C3CC3)cc2)cc1 (stereo not drawn) [Compound 23, 2-(4-Cyclopropylphenyl)-3-[2-(4-methoxyphenyl)ethyl]-1-methyl-8-(pyrrolidin-1-ylcarbonyl)-1,3,8-triaza-spiro[4.5]decan-4-one] | 0.181 | 96 | 77 | 6.6 | 6.2
6 | COc1ccc(CCN2C(=O)C3(CCN(C(=O)N4CCOCC4)CC3)N(C)C2c2ccc(C3CC3)cc2)cc1 (stereo not drawn) [Compound 24, 2-(4-Cyclopropylphenyl)-3-[2-(4-methoxyphenyl)ethyl]-1-methyl-8-(morpholin-4-ylcarbonyl)-1,3,8-triaza-spiro[4.5]decan-4-one] |  | 82 | 27 | 13 | 
7 | CONC(=O)N1CCC2(CC1)C(=O)N(CCc1ccc(OC)cc1)C(c1ccc(C3CC3)cc1)N2C (stereo not drawn) [Compound 25, 2-(4-cyclopropylphenyl)-N-methoxy-3-[2-(4-methoxyphenyl)ethyl]-1-methyl-4-oxo-1,3,8-triazaspiro[4.5]decane-8-carboxamide] |  | 82 | 23 | 17 | 
8 | COc1ccc(CCN2C(=O)C3(CCN(C(=O)NO)CC3)N(C)C2c2ccc(C3CC3)cc2)cc1 (stereo not drawn) [Compound 26, 2-(4-Cyclopropylphenyl)-N-hydroxy-3-[2-(4-methoxyphenyl)ethyl]-1-methyl-4-oxo-1,3,8-triazaspiro[4.5]decane-8-carboxamide] |  | 65 | 5 | 24 | 
9 | CCONC(=O)N1CCC2(CC1)C(=O)N(CCc1ccc(OC)cc1)C(c1ccc(C3CC3)cc1)N2C (stereo not drawn) [Compound 27, 2-(4-cyclopropylphenyl)-N-ethoxy-3-(4-methoxyphenethyl)-1-methyl-4-oxo-1,3,8-triazaspiro[4.5]decane-8-carboxamide] |  | 87 | 35 | 20 | 
10 | COc1ccc(CCN2C(=O)C3(CCN(C(=O)NNC(=O)OC(C)(C)C)CC3)N(C)C2c2ccc(C3CC3)cc2)cc1 (stereo not drawn) [Compound 29, tert-Butyl 2-({2-(4-cyclopropylphenyl)-3-[2-(4-methoxyphenyl)ethyl]-1-methyl-4-oxo-1,3,8-triazaspiro[4.5]dec-8-yl}carbonyl)hydrazine carboxylate] |  | 83 | 31 | 8 | 
11 | COc1ccc(CCN2C(=O)C3(CCN(C(N)=NC#N)CC3)N(C)C2c2ccc(OC)cc2)cc1 (stereo not drawn) [Compound 30, N′-cyano-2-(4-methoxyphenyl)-3-[2-(4-methoxyphenyl)ethyl]-1-methyl-4-oxo-1,3,8-triazaspiro[4.5]decane-8-carboximidamide] | 0.166 | 93 | 91 | 21 | 6
12 | COc1ccc(CCN2C(=O)C3(CCN(C(N)=NC#N)CC3)N(C)C2c2ccc(C3CC3)cc2)cc1 (stereo not drawn) [Compound 31, 8-(Cyano-1-carboxamidine)-2-(4-cyclopropylphenyl)-3-[2-(4-methoxyphenyl)-ethyl]-1-methyl-1,3,8-triaza-spiro[4.5]decan-4-one] |  | 75 | 25 | 26 | 
13 | COc1ccc(CCN2C(=O)C3(CCN(S(C)(=O)=O)CC3)N(C)C2c2ccc(C3CC3)cc2)cc1 (stereo not drawn) [Compound 32, 2-(4-cyclopropylphenyl)-8-methanesulfonyl-3-[2-(4-methoxy-phenyl)ethyl]-1-methyl-1,3,8-triaza-spiro[4.5]decan-4-one] |  | 90 | 57 | 13 | 
14 | COc1ccc(CCN2C(=O)C3(CCN(S(C)(=O)=O)CC3)N(C)C2c2ccc(C(C)(C)C)cc2)cc1 (stereo not drawn) [Compound 33, 2-(4-tert-Butylphenyl)-8-methanesulfonyl-3-[2-(4-methoxyphenyl)ethyl]-1-methyl-1,3,8-triaza-spiro[4.5]decan-4-one] |  | 80 | 54 | 25 | 
15 | COc1ccc(CCN2C(=O)C3(CCN(S(C)(=O)=O)CC3)N(C)C2c2ccc(C(F)(F)F)cc2)cc1 (stereo not drawn) [Compound 34, 2-(4-Trifluoromethylphenyl)-8-methanesulfonyl-3-[2-(4-methoxyphenyl)ethyl]-1-methyl-1,3,8-triaza-spiro[4.5]decan-4-one] |  | 80 | 50 | 18 | 
16 | CCOC(=O)N1CCC2(CC1)C(=O)N(CCc1ccc(OC)cc1)C(c1ccc(C3CC3)cc1)N2C (stereo not drawn) [Compound 35, Ethyl 2-(4-cyclopropylphenyl)-3-[2-(4-methoxyphenyl)ethyl]-1-methyl-4-oxo-1,3,8-triazaspiro[4.5]decane-8-carboxylate] |  | 96 | 65 | 30 | 
17 | COc1ccc(CCN2C(=O)C3(CCN(C(=O)OC(C)(C)C)CC3)N(C)C2c2ccc(OC)cc2)cc1 (stereo not drawn) [Compound 37, tert-Butyl 2-(4-methoxyphenyl)-3-[2-(4-methoxyphenyl)ethyl]-1-methyl-4-oxo-1,3,8-triazaspiro[4.5]decane-8-carboxylate] |  | 83 | 12 | 14 | 
18 | COc1ccc(CCN2C(=O)C3(CCN(C(=O)c4ccno4)CC3)N(C)C2c2ccc(C3CC3)cc2)cc1 (stereo not drawn) [Compound 42, 2-(4-Cyclopropylphenyl)-8-(isoxazol-5-yl-carbonyl)-3-[2-(4-methoxyphenyl)ethyl]-1-methyl-1,3,8-triazaspiro[4.5]decan-4-one] |  | 94 | 81 | 23 | 
19 | CC(=O)N1CCC2(CC1)C(=O)N(CCCc1ccccc1)C(c1ccc(C3CC3)cc1)N2C (stereo not drawn) [Compound 44, 8-Acetyl-2-(4-cyclopropylphenyl)-3-(3-phenylpropyl)-1-methyl-1,3,8-triazaspiro-[4.5]decan-4-one] |  | 73 | 61 | 15 | 
20 | CN1C(c2ccc(C3CC3)cc2)N(CCCc2ccccc2)C(=O)C12CCN(C(=O)C1CC1)CC2 (stereo not drawn) [Compound 45, 8-Cyclopropanecarbonyl-2-(4-cyclopropylphenyl)-3-(3-phenylpropyl)-1-methyl-1,3,8-triazaspiro-[4.5]decan-4-one] | 0.287 | 77 | 87 | 6.2 | 3.3
21 | COc1ccc(C2N(CCCc3ccccc3)C(=O)C3(CCN(C(=O)C4CC4)CC3)N2C)cc1 (stereo not drawn) [Compound 46, 8-Cyclopropanecarbonyl-2-(4-methoxyphenyl)-3-(3-phenylpropyl)-1-methyl-1,3,8-triazaspiro-[4.5]decan-4-one] |  | 68 | 32 | 17 | 
